Results published in PMC10876879, “Sustained silencing peanut allergy by xanthopurpurin is associated with suppression of peripheral and bone marrow IgE-producing B cell” (Frontiers in Immunology, 2024).
Like-named read-outs stand apart in the source and are kept apart here.

Key:
IgE production [1] = experiment: IgE production in vivo, other R. cordifolia compounds (data not shown)
IgE production [2] = experiment: IgE production in vitro, other R. cordifolia compounds (data not shown); assay type: cell-based
[3] = design: method as in PMID 28208101; settings: cited from earlier work
PN-allergic mice = settings: oral berberine alone; cited from earlier work
IgE production [4] = settings: cited from earlier work
IgE = system: IgE; design: method as in PMID 26185589; settings: cited from earlier work

Molecule: O=C1c2ccccc2C(=O)c2c(O)c(O)cc(O)c21 [purpurin, 1,2,4-trihydroxyanthraquinone]
- IgE production in vivo (IgE production [1]): failed in vivo
- IgE production in vitro (IgE production [2]): inhibited IgE production only in vitro

Molecule: 1,3-dihydroxy-2-ethoxymethyl-9,10 anthraquinone [alizarin]
- IgE production in vivo (IgE production [1]): failed in vivo
- IgE production in vitro (IgE production [2]): inhibited IgE production only in vitro

Molecule: COc1ccc2cc3[n+](cc2c1OC)CCc1cc2c(cc1-3)OCO2 [berberine]
- Bioavailability [3]: poor
- PN-specific IgE levels (PN-allergic mice): did not reduce PN-specific IgE levels
- Protection from anaphylaxis (PN-allergic mice): failed to protect PN-allergic mice from anaphylaxis
- IgE production in vitro (IgE production [4]): significantly inhibited the IgE production

Molecule: omalizumab: anti-IgE therapy, neutralizes free serum IgE
- Anaphylactic reactions during oral immunotherapy (OIT) (IgE): greatly reduce anaphylactic reactions
